Experimental data as given in PubChem BioAssay (NCI).
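All cell lines were grown in 96-well plates and treated with compound for 48 hours. The concentration for 50% growth inhibition is given as GI50. TGI denotes the concentration required for complete inhibition of growth.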

How the values were obtained:
Assay in all cases: DTP human tumour cell line panel, 48 h
T-47D breast = system: T-47D breast
NCI-H522 lung = system: NCI-H522 lung
NCI-H460 lung = system: NCI-H460 lung
NCI-H226 lung = system: NCI-H226 lung
SNB-75 CNS = system: SNB-75 CNS
KM12 colon = system: KM12 colon
PC-3 prostate = system: PC-3 prostate
MDA-MB-231 breast = system: MDA-MB-231 breast
CAKI-1 renal = system: CAKI-1 renal
MOLT-4 leukemia = system: MOLT-4 leukemia
UACC-62 melanoma = system: UACC-62 melanoma
HT29 colon = system: HT29 colon
MDA-MB-435 = system: MDA-MB-435
MCF7 breast = system: MCF7 breast
RPMI-8226 leukemia = system: RPMI-8226 leukemia
K-562 leukemia = system: K-562 leukemia
SF-539 CNS = system: SF-539 CNS
SR leukemia = system: SR leukemia
ACHN renal = system: ACHN renal
HCT-116 colon = system: HCT-116 colon
UO-31 renal = system: UO-31 renal
OVCAR-3 ovarian = system: OVCAR-3 ovarian
HCC-2998 colon = system: HCC-2998 colon
OVCAR-5 ovarian = system: OVCAR-5 ovarian
MALME-3M melanoma = system: MALME-3M melanoma
U251 CNS = system: U251 CNS
A549 NSCLC = system: A549 NSCLC
SF-268 CNS = system: SF-268 CNS
HS 578T breast = system: HS 578T breast
SK-MEL-5 melanoma = system: SK-MEL-5 melanoma
SK-MEL-2 melanoma = system: SK-MEL-2 melanoma
TK-10 renal = system: TK-10 renal
NCI-H23 lung = system: NCI-H23 lung
CCRF-CEM leukemia = system: CCRF-CEM leukemia
BT-549 breast = system: BT-549 breast
HOP-92 NSCLC = system: HOP-92 NSCLC
EKVX NSCLC = system: EKVX NSCLC
DU-145 prostate = system: DU-145 prostate
OVCAR-4 ovarian = system: OVCAR-4 ovarian
IGROV1 ovarian = system: IGROV1 ovarian
HOP-62 NSCLC = system: HOP-62 NSCLC
SK-MEL-28 melanoma = system: SK-MEL-28 melanoma
M14 melanoma = system: M14 melanoma
SN12C renal = system: SN12C renal
HL-60(TB) leukemia = system: HL-60(TB) leukemia
SNB-19 CNS = system: SNB-19 CNS
UACC-257 melanoma = system: UACC-257 melanoma
OVCAR-8 ovarian = system: OVCAR-8 ovarian
NCI/ADR-RES ovarian = system: NCI/ADR-RES ovarian
A498 renal = system: A498 renal
786-0 renal = system: 786-0 renal
COLO 205 colon = system: COLO 205 colon
SK-OV-3 ovarian = system: SK-OV-3 ovarian

C#C[C@]1(O)CC[C@H]2[C@@H]3CC=C4c5sc(Nc6cc(OC)ccc6OC)nc5CC[C@]4(C)[C@H]3CC[C@@]21C
GI50 (T-47D breast): 3.04 µM | TGI (T-47D breast): > 100 µM | GI50 (NCI-H522 lung): 3.9 µM | TGI (NCI-H522 lung): 29.8 µM | GI50 (NCI-H460 lung): 2.16 µM | TGI (NCI-H460 lung): 15.1 µM | GI50 (NCI-H226 lung): 3.04 µM | TGI (NCI-H226 lung): 20.9 µM | GI50 (SNB-75 CNS): 0.386 µM | TGI (SNB-75 CNS): 13.7 µM | GI50 (KM12 colon): 2.33 µM | TGI (KM12 colon): 11 µM | GI50 (PC-3 prostate): 0.627 µM | TGI (PC-3 prostate): 30 µM | GI50 (MDA-MB-231 breast): 2.36 µM | TGI (MDA-MB-231 breast): > 100 µM | GI50 (CAKI-1 renal): 1.11 µM | TGI (CAKI-1 renal): 4.68 µM | GI50 (MOLT-4 leukemia): 0.367 µM | TGI (MOLT-4 leukemia): 16.2 µM | GI50 (UACC-62 melanoma): 1.56 µM | TGI (UACC-62 melanoma): 9.02 µM | GI50 (HT29 colon): 1.8 µM | TGI (HT29 colon): > 100 µM | GI50 (MDA-MB-435): 2.79 µM | TGI (MDA-MB-435): 19.2 µM | GI50 (MCF7 breast): 0.454 µM | TGI (MCF7 breast): 1.74 µM | GI50 (RPMI-8226 leukemia): 0.193 µM | TGI (RPMI-8226 leukemia): 0.694 µM | GI50 (K-562 leukemia): 0.553 µM | TGI (K-562 leukemia): > 100 µM | GI50 (SF-539 CNS): 0.449 µM | TGI (SF-539 CNS): 1.68 µM | GI50 (SR leukemia): 0.306 µM | TGI (SR leukemia): 24.8 µM | GI50 (ACHN renal): 1.9 µM | TGI (ACHN renal): 16.5 µM | GI50 (HCT-116 colon): 1.12 µM | TGI (HCT-116 colon): 2.77 µM | GI50 (UO-31 renal): 1.41 µM | TGI (UO-31 renal): 12.9 µM | GI50 (OVCAR-3 ovarian): 2.39 µM | TGI (OVCAR-3 ovarian): 9.14 µM | GI50 (HCC-2998 colon): 4.11 µM | TGI (HCC-2998 colon): 23.2 µM | GI50 (OVCAR-5 ovarian): 4.14 µM | TGI (OVCAR-5 ovarian): 25.7 µM | GI50 (MALME-3M melanoma): 1.69 µM | TGI (MALME-3M melanoma): 8.76 µM | GI50 (U251 CNS): 0.643 µM | TGI (U251 CNS): 13.3 µM | GI50 (A549 NSCLC): 3.1 µM | TGI (A549 NSCLC): 95.7 µM | GI50 (SF-268 CNS): 3.55 µM | TGI (SF-268 CNS): 33 µM | GI50 (HS 578T breast): 0.202 µM | TGI (HS 578T breast): 0.597 µM | GI50 (SK-MEL-5 melanoma): 2.3 µM | TGI (SK-MEL-5 melanoma): 5.58 µM | GI50 (SK-MEL-2 melanoma): 2.28 µM | TGI (SK-MEL-2 melanoma): 42.1 µM | GI50 (TK-10 renal): 4.15 µM | TGI (TK-10 renal): 27.5 µM | GI50 (NCI-H23 lung): 2.49 µM | TGI (NCI-H23 lung): 28.3 µM | GI50 (CCRF-CEM leukemia): 0.619 µM | TGI (CCRF-CEM leukemia): > 100 µM | GI50 (BT-549 breast): 0.61 µM | TGI (BT-549 breast): 7.03 µM | GI50 (HOP-92 NSCLC): 4.66 µM | TGI (HOP-92 NSCLC): 74.7 µM | GI50 (EKVX NSCLC): 2.86 µM | TGI (EKVX NSCLC): 42.5 µM | GI50 (DU-145 prostate): 1.91 µM | TGI (DU-145 prostate): 7.47 µM | GI50 (OVCAR-4 ovarian): 4.46 µM | TGI (OVCAR-4 ovarian): > 100 µM | GI50 (IGROV1 ovarian): 2.93 µM | TGI (IGROV1 ovarian): 25 µM | GI50 (HOP-62 NSCLC): 1.96 µM | TGI (HOP-62 NSCLC): 47.9 µM | GI50 (SK-MEL-28 melanoma): 0.406 µM | TGI (SK-MEL-28 melanoma): 5.32 µM | GI50 (M14 melanoma): 1.04 µM | TGI (M14 melanoma): 4.08 µM | GI50 (SN12C renal): 3.9 µM | TGI (SN12C renal): 32.7 µM | GI50 (HL-60(TB) leukemia): 0.646 µM | TGI (HL-60(TB) leukemia): 4.07 µM | GI50 (SNB-19 CNS): 3.63 µM | TGI (SNB-19 CNS): 24.3 µM | GI50 (UACC-257 melanoma): 1.95 µM | TGI (UACC-257 melanoma): 9.18 µM | GI50 (OVCAR-8 ovarian): 2.94 µM | TGI (OVCAR-8 ovarian): > 100 µM | GI50 (NCI/ADR-RES ovarian): 3.11 µM | TGI (NCI/ADR-RES ovarian): > 100 µM | GI50 (A498 renal): 0.429 µM | TGI (A498 renal): 4.62 µM | GI50 (786-0 renal): 0.392 µM | TGI (786-0 renal): 5.08 µM | GI50 (COLO 205 colon): 2.43 µM | TGI (COLO 205 colon): 7.83 µM | GI50 (SK-OV-3 ovarian): 1.08 µM | TGI (SK-OV-3 ovarian): 4.37 µM
